Several values for one entry are separate records, joined by “and”; a condition that tells them apart may be missing. Equal entries are not always repeated.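 Grown in 96-well plates, cells were treated for 48 hours with each compound at five concentrations. Insufficient inhibition: endpoint recorded as highest concentration tested. The concentration for 50% growth inhibition is given as GI50. At the TGI there is no net growth.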
Tests used:
Assay in all cases: inhibition of tumour cell growth, NCI panel, 48 h
[1] = tested on: DMS 273 small cell lung
[2] = tested on: HOP-18 NSCLC
[3] = tested on: LXFL 529 NSCLC
[4] = tested on: T-47D breast
[5] = tested on: PC-3 prostate
[6] = tested on: NCI/ADR-RES ovarian
[7] = tested on: MDA-MB-231 breast
[8] = tested on: MCF7 breast
[9] = tested on: M19-MEL melanoma

Structure (SMILES)	TGI [1] [µM]	TGI [2] [µM]	TGI [3] [µM]	TGI [4]	TGI [5]	TGI [6]	TGI [7]	TGI [8]	TGI [9] [µM]	GI50 [4]	GI50 [5]	GI50 [6]	GI50 [7]	GI50 [8]
CC(=O)C1=C(O)CC2CC3c4[nH]c5ccccc5c4CCN3CC2C1 (stereo not drawn)	> 100	> 100	> 100	–	–	–	–	–	–	–	–	–	–	–
Cc1cc(C)c(-n2c(-c3ccc(Br)cc3)cs/c2=N\N=C2C=C(C(C)(C)C)C(=O)C(C(C)(C)C)=C2)c(C)c1	> 100	> 100	> 100	> 100 µM	> 100 µM	> 100 µM	> 100 µM	> 100 µM	> 100	–	–	–	–	–
Cc1cc2c(C)nn(Cc3ccc(Cl)cc3)c2c(C#N)c1C	> 100	> 100	> 100	–	–	–	–	–	> 100	–	–	–	–	–
Clc1ccc(C(n2cc(Br)cn2)n2cc(Br)cn2)cc1	36.8	34.4	29.5	–	–	–	–	–	32.6	–	–	–	–	–
CCCCCCCc1cc2c3c(nc4ccccc42)C(=O)c2cccnc2-c3n1	–	–	–	20.7 µM	10.9 µM	12.6 µM	20 µM	5.92 µM	–	4.31 µM	4.39 µM	4.33 µM	6.71 µM	1.54 µM
CCOC(=O)c1c2c(n3ccccc13)C(=O)c1ncccc1C2=O	–	–	–	47.8 µM	14.9 µM	3.09 µM	> 100 µM	1.77 µM	–	2.51 µM	0.361 µM	0.0348 µM	2.76 µM	0.0284 µM
O=C1C(=Cc2c(O)cc(O)cc2O)C(=O)c2ccccc21	> 100	58.7	> 57.5	–	–	–	–	–	> 53	–	–	–	–	–
O=c1c2cc(Cl)ccc2sc2cccc(Cl)c12	> 100	–	> 100	–	–	–	–	–	> 100	–	–	–	–	–
CN1C(=O)C2C(C1=O)C1(O)c3ccccc3C2(N)c2ccccc21 (stereo not drawn)	> 100	> 100	–	–	–	–	–	–	> 100	–	–	–	–	–
COc1ccc(C2ON(c3cccc(C)n3)CC=C2C)cc1 (stereo not drawn)	> 100	> 100	> 100	–	–	–	–	–	> 100	–	–	–	–	–
COc1ccc2c(c1)C(=O)c1c-2n(CCCI)c(=O)c2cc([N+](=O)[O-])ccc12	–	–	–	1.65 µM and 8.64 µM	30.4 µM and > 100 µM	–	50 µM and > 100 µM	–	–	0.173 µM and 0.163 µM	0.279 µM and 1.42 µM	0.14 µM and 0.122 µM	12.9 µM and 22.9 µM	0.0105 µM and 0.0343 µM
COc1ccccc1NC(=O)CC(=O)N/N=C/c1ccc(N(CCC#N)S(=O)(=O)c2ccccc2)cc1	–	> 100	> 100	–	–	–	–	–	> 100	–	–	–	–	–
CCCSS[C@H]1NC(=O)[C@H]1NC(=O)COc1ccccc1	31.2	66.7	18.3	–	–	–	–	–	33	–	–	–	–	–
Cc1cn(-c2cc(NC(=O)c3ccc(C)c(Nc4nccc(-c5cccnc5)n4)c3)cc(C(F)(F)F)c2)cn1	–	–	–	> 10 µM and 32.3 µM	> 10 µM	> 10 µM and 16.1 µM	> 10 µM and 14.3 µM	7.39 µM and 7.55 µM	–	> 10 µM and 6.71 µM	3.19 µM and 3.23 µM	5.72 µM and 2.5 µM	3.68 µM and 1.81 µM	2.49 µM and 2.35 µM
N#CC1CCCCCCCCCCC(=O)N(CCCl)C1=O (stereo not drawn)	> 100	–	> 100	–	–	–	–	–	> 100	–	–	–	–	–
CCN(CC)c1ccc(N=Nc2ccc(-c3nc4ccc[n+](C)c4o3)cc2)cc1	23.3	38.3	16.7	–	–	–	–	–	16.3	–	–	–	–	–
C#CCOc1cccc(Nc2ncnc3cc(NC(=O)CCl)ccc23)c1	–	–	–	32 µM	12 µM	42.9 µM	19.9 µM	7.99 µM	–	9.11 µM	2.57 µM	4.13 µM	5.28 µM	1.95 µM
O=C(O)CCc1nn2c(nc1=O)sc1ccc3ccccc3c12	> 100	> 100	> 100	–	–	–	–	–	> 100	–	–	–	–	–
N#CC1(C#N)C(C#N)(C#N)C12CCCCCC2	52.4	30.3	29.8	–	–	–	–	–	47.9	–	–	–	–	–
N#C/C(=C\c1ccc(Br)cc1)n1nnc2ccc(F)cc21	–	–	–	6.11 µM	2.89 µM	3.42 µM	4.8 µM	2.85 µM	–	0.447 µM	0.953 µM	0.34 µM	1.87 µM	0.372 µM
CC(C)(c1ccccc1)c1ccc(OC#N)cc1	30.7	> 100	> 100	–	–	–	–	–	> 100	–	–	–	–	–

From PubChem BioAssay (NCI)
